Laboratory results: US20200078404A1, “COMBINATION OF A CELL THERAPY AND AN IMMUNOMODULATORY COMPOUND” (Juno Therapeutics, Inc., priority 2017, published 2020)

Legend:
anti-CD19 CAR+ T cells [1] = assay: IL-10 in supernatants of anti-CD19 CAR+ T cells incubated with K562-CD19 cells; settings: E:T 3:1 or 9:1, 24 hours
[2] = system: anti-CD19 CAR-expressing T cells; assay: Serial stimulation with K562.CD19: surface markers; type: cell-based, human
Protocol: Every 3-4 days (start of each new round), the cells were counted.
Expression of select surface markers was assessed on cells at day 4 (i.e., 4 days after the first stimulation) and day 28 (i.e., 4 days after the seventh stimulation). Specifically, harvested cells were analyzed by flow cytometry for CD3, CD4, CD8 and the surrogate marker for CAR expression, and also for the following surface markers: CD69, CD107a, PD-1, CD25, CD62L, CCR7, CD45RO, CD27, and LAG3.

anti-BCMA CAR T cells [3] = assay: Cytokine production of anti-BCMA CAR T cells on low, medium, high BCMA bead stimulation; type: cell-based, human
Protocol: In another study, recombinant human BCMA-conjugated beads were used to stimulate CAR T cells at various concentrations to titrate the magnitude of stimulation, either low (5 μg/mL), medium (50 μg/mL), and high (200 μg/mL) stimulation.

K562-CD19 cells [4] = settings: 1-5000 nM lenalidomide, E:T 2.5:1, about 120 hours
OPM-2 = settings: read-out: sensitive to lenalidomide; cited from earlier work
K562-CD19 cells [5] = assay: Cytolytic activity of restimulated anti-CD19 CAR+ T cells against K562-CD19 cells; type: cell-based, human; settings: 1 μM lenalidomide, 2nd and 4th restimulation
Protocol: Cells from each condition were plated in triplicate. Representative cell killing observed at the 2nd and 4th restimulation for both donors is shown in FIG. 18A (as normalized to K562-CD19-Nuc-labeled cells at t=0) or in FIG. 18B (% cell killing compared to vehicle only control (set at 100%)).

anti-BCMA CAR+ T cells = assay: 3-D reconstructed bone marrow (rBone) myeloma model with RPMI-8226; type: cell-based, human; settings: 1.0 μM lenalidomide
Excerpt: To assess cell function in the context of a three-dimensional (3-D) human BCMA-expressing tissue microenvironment, a reconstructed bone marrow (rBone™) (z[…], San Jose, Calif.) was embedded with BCMA-expressing RPMI-8226.
After 2 or 7 days, cells were isolated and assessed by flow cytometry for surface expression of CD3, CD25, CD4, and CD8.

RPMI-8226 target cells [6] = assay: Cytolytic activity of anti-BCMA CAR T cells co-cultured with RPMI-8226 target cells with or without lenalidomide; type: cell-based, human
Protocol: […]. […] Cells from each condition were plated in triplicate.

anti-CD19 CAR+ T cells [7] = assay: CD25 and PD-1 surface expression of anti-CD19 CAR+ T cells incubated with K562-CD19 cells; type: cell-based, human
Protocol: After 120 hours of culture, cells were isolated and assessed by flow cytometry for surface expression of CD25 or PD-1 in CD4+ or CD8+ T cell subsets.

anti-BCMA CAR-T cells = assay: Prestimulation of anti-BCMA CAR-T cells on BCMA beads for 7 days: phenotype, cytolytic activity and cytokines with RPMI-8226; type: cell-based, human
Protocol: Expression of CD25, PD-1, Tim3 and Lag3 on CAR T cells (using an antibody for surrogate CAR marker) cultured under the different conditions then was assessed by flow cytometry.
Percentage killing was normalized to anti-BCMA CAR T cells prestimulated on beads in the presence of vehicle. Cytokine production was assessed by ELISA from supernatant following culture with target cells for 24 hours. Experiments were performed twice in 3 donors. […] P values were obtained by likelihood ratio tests comparing the full model with the effect of interest against the model without the effect of interest.

RPMI-8226 = settings: read-out: sensitive to lenalidomide; cited from earlier work
anti-BCMA CAR T cells [8] = assay: Cytokines of anti-BCMA CAR T cells stimulated with BCMA-conjugated beads (supernatant, intracellular); type: cell-based, human; settings: 24 hours
Protocol: Cryofrozen anti-BCMA CAR T cells, produced substantially as described in Example 2 and formulated at a 1:1 ratio of CD4+ and CD8+ T cells, were thawed.
Twenty four hours after addition of BCMA-conjugated beads, the presence of TNF-α, IFNγ, and IL-2 in culture supernatants was assessed.
In a further exemplary study, two different anti-BCMA CAR T cell compositions were generated from different donors, each containing T cells expressing the same anti-BCMA CAR. The cells were thawed and incubated with beads (diameter about 4.5 μm) from a 5 μg/mL or 200 μg/mL BCMA-conjugated bead composition generated as described in Example 1. […] Twenty four hours after addition of BCMA-conjugated beads, IL-2 production by the anti-BCMA CAR+ T cells was assessed in culture supernatants.
The cells were gated on transduced, live CD3+ cells, and assessed by flow cytometry for intracellular cytokine accumulation of IFNγ and TNFα in CD4+ and CD8+ cells.

[9] = system: anti-CD19 CAR-expressing T cells; assay: Cytokine production of anti-CD19 CAR-expressing T cells incubated with K562.CD19 target cells; type: cell-based, human; settings: concentration-dependent, E:T 5:1 and 2.5:1, 24 hours, vs vehicle
RPMI-8226 target cells [10] = assay: Cytolytic activity against RPMI-8226 after seven days incubation with BCMA-conjugated beads; type: cell-based, human
Protocol: Cytolytic activity of CAR+ T cells after incubation with BCMA-conjugated beads was assessed by incubation with the BCMA-expressing target cell line RPMI-8226, which is a BCMA+ multiple myeloma cell line. […] The number of viable cells was normalized to cells at day 0 prior to incubation with the RPMI-8226 target cells.

[11] = medium stimulation (50 μg BCMA beads), 24 hours, 1 μM lenalidomide
[12] = 1 μM lenalidomide during the prestimulation period
[13] = 1 μM lenalidomide, 7 days on BCMA beads

Nc1cccc2c1CN(C1CCC(=O)NC1=O)C2=O (stereo not drawn) [lenalidomide, 3-(4-amino-1-oxo-1,3-dihydro-2H-isoindol-2-yl)piperidine-2,6-dione]
secretion and/or accumulation of IL-10 (anti-CD19 CAR+ T cells [1]): dose-dependently increased secretion and/or accumulation of IL-10
expression of CD28 ([2]; CD4+ and CD8+ CAR-expressing T cells, day 28, three donors): decreased in a dose-dependent manner
PD-1 expression ([2]; both E:T ratios, day 4 and day 28): downregulated to some degree in all donors
CD25 and LAG3 expression ([2]; day 4): upregulated across all three donors
CCR7 expression ([2]; day 28): generally decreased at day 28
percentage of IFN-γ+ and TNF-α+ intracellular staining (anti-BCMA CAR T cells [3]; 0.1 or 1.0 μM lenalidomide, all stimulation levels, CD4+ and CD8+): increased the percentage of IFN-γ^+ and TNF-α^+ intracellular staining
percentage of IL-2+ CAR+ T cells (anti-BCMA CAR T cells [3]; 5-μg stimulation): increasing the percentage of IL-2^+ CAR^+ T cells
percentage of IL-2+ CAR+ T cells (anti-BCMA CAR T cells [3]; 50-μg and 200-μg stimulation): decreasing the percentage of IL-2^+ CAR^+ T cells
CAR T cytokine production (anti-BCMA CAR T cells [3]; absence of stimulation): had no effect on CAR T cytokine production
increase in IL-2 concentration compared with vehicle control (anti-BCMA CAR T cells [3]; [11]): 200%
increase in TNF-α concentration compared with vehicle control (anti-BCMA CAR T cells [3]; [11]): 200%
IFN-γ concentration compared with vehicle control (anti-BCMA CAR T cells [3]; medium stimulation, 24 hours): donor-dependent increases
CAR-mediated cytolytic activity (K562-CD19 cells [4]): reduced CAR-mediated cytolytic activity
IC50 (OPM-2): 37.4 µM
anti-CD19 CAR+ T cell cytolytic activity (K562-CD19 cells [5]): decrease in anti-CD19 CAR+ T cell cytolytic activity
CD25+ expression in CD4+ and CD8+ T cell populations (anti-BCMA CAR+ T cells): increase in CD25+ expression
total number of CD3+ cells (anti-BCMA CAR+ T cells; day 7): increase in total number of CD3+ cells
target cell killing by anti-BCMA CAR+ T cells (RPMI-8226 target cells [6]; 1 μM or 10 μM lenalidomide, E:T 0.3:1, day 6, vs absence of lenalidomide): greater degree of target cell killing
time at which the effect of lenalidomide on cytolytic activity emerges (RPMI-8226 target cells [6]; in culture): > 50 h
treatment effect of lenalidomide on CAR T cytolytic activity (RPMI-8226 target cells [6]; three healthy donors and one IMiD-refractory patient, 0.01-10 μM): appeared to be donor-dependent
CD25 expression in CD4+ and CD8+ T cells (anti-CD19 CAR+ T cells [7]; 1600 nM lenalidomide, E:T 2.5:1, 120 hours): higher levels of CD25 expression
surface expression of PD-1 in CD4+ or CD8+ T cells (anti-CD19 CAR+ T cells [7]; up to 1600 nM lenalidomide, 120 hours): No difference in surface expression of PD-1
cytokine production of prestimulated CAR-T cells (anti-BCMA CAR-T cells; [12]): trend toward increased cytokine production
cytolytic function of prestimulated CAR-T cells (anti-BCMA CAR-T cells; [12]): preserved cytolytic function
CD25 expression (MFI) (anti-BCMA CAR-T cells; [13]): increasing CD25 expression
PD-1 expression (MFI) (anti-BCMA CAR-T cells; [13]): reduced PD-1 expression
total cell count (anti-BCMA CAR-T cells; 7-day period, all donors): did not alter the total cell count
CAR+ viability (anti-BCMA CAR-T cells; 7 days on BCMA beads, 3 healthy donors): significantly increased CAR+ viability
percentage positive for Lag3 expression (anti-BCMA CAR-T cells; CD4+ and CD8+ CAR+ populations, all donors): increased
percentage of PD-1+ cells (anti-BCMA CAR-T cells; CD4+ population): decrease in the percentage of PD-1+ cells
surface expression of Tim3 (anti-BCMA CAR-T cells; CD8+ population, three donors): increased the surface expression of Tim3 in the CD8+ population
IC50 (RPMI-8226): 6.43 µM
intracellular cytokine levels of IFNγ and TNFα (anti-BCMA CAR T cells [8]; 0.1 μM or 1 μM lenalidomide, 5, 50 or 200 μg/mL beads): increased by lenalidomide
IL-2 production (anti-BCMA CAR T cells [8]; 1 μM or 5 μM lenalidomide, 5 or 200 μg/mL BCMA beads, two donors): increased cytokine production
BCMA-induced CAR+ T cell cytokine production (IFNγ, IL-2, TNF-α) (anti-BCMA CAR T cells [8]; 5 μM lenalidomide, 5 or 50 μg/mL BCMA beads): increased BCMA-induced CAR+ T cell cytokine production
cytokine production (IFN-γ, IL-2, TNF-α) [9]: increased
target cell viability (RPMI-8226 target cells [10]; RPMI 8226 cells cultured with lenalidomide, no CAR T): did not directly influence target cell viability
killing activity (RPMI-8226 target cells [10]; lenalidomide present during the cell killing assay): did not substantially affect killing activity
cytolytic activity of the CAR+ T cells (RPMI-8226 target cells [10]; preincubation with 5 μM lenalidomide during seven day bead incubation): increased cytolytic activity of the CAR+ T cells
